Assay results published in article PMC8292346, “Dysfunction of the key ferroptosis-surveilling systems hypersensitizes mice to tubular necrosis during acute kidney injury” (Nature Communications, 2021).
“And” between values parts separate entries of the source, which are not always exact repeats. Identical values can stand only once.

Key:
[1] = system: HT29 cells; experiment: TSZ-induced necroptosis, 7-AAD/annexin V flow cytometry; type: cell-based, human; conditions: Nec-1f 10 µM
Procedure: (§1) To induce necroptosis in a human cell line, HT29 cells were stimulated at the indicated time points with 20 ng/ml human TNFα (Biolegend), 1 μM SMAC-mimetics (Birinapant, Chemietek), and 20 μM zVAD-fmk (Selleckchem, herein referred to as zVAD). For the induction of necroptosis in NIH3T3 cells, cells were incubated with 20 ng/ml TNF-α and 20 μM zVAD for indicated time points. […] Cells were seeded in six-well plates or petri dishes. […] After indicated time points, cells were collected and prepared for flow cytometry, immunoblotting, and/or LDH release assays.
(§2) Cells were harvested and the pellets were washed twice in PBS and stained with 5 μl of 7-AAD (BD Biosciences) and 5 μl of annexin-V-FITC (BD Biosciences) added to 100 μl annexin-V binding buffer (BD Biosciences). After 15 min, cells were recorded on the LSRII with the FACS Diva 6.1.1 software (BD Biosciences) and subsequently analyzed with the FlowJo v10 software (Tree Star).

[2] = system: MLKL; experiment: Western blot of pMLKL (S358) in TSZ-treated HT29 cells; type: cell-based, human; conditions: Nec-1s 10 µM, Fer-1 1 µM, Nec-1f 10 µM
Procedure: as §1
(§3) Cells were lysed in ice-cold 10 mM Tris-HCl, pH 7.5, 50 mM NaCl, 1% Triton X-100, 30 mM sodium pyrophosphate, 50 mM NaF, 100 μM Na3VO4, 2 μM ZnCl2, and 1 mM phenylmethylsulfonyl fluoride (PMSF, modified Frackelton buffer) for 30 min on ice. Insoluble material was removed by centrifugation (14 000×g, 30 min, 4 °C). Protein concentration was determined using a commercial Bradford assay kit according to the manufacturer’s instructions (Thermo Fisher). Equal amounts of protein (typically 30 μg per lane) were resolved on a 4%−15% gradient SDS/PAGE gel and transferred to a PVDF membrane (BIO-RAD). Primary antibody incubation was performed for anti-pS166-RIPK1 (Cell Signaling, Cat# 65746, 1:1000 dilution), anti-pS358-MLKL, (Abcam, ab187091, 1:1000 dilution), anti-MLKL (Genetex, GTX107538, 1:1000 dilution) and anti-β-Actin (Cell Signaling, Cat# 3700S, 1:1000 dilution). Secondary antibodies (anti-mouse, HRP-linked antibody, Cell Signaling, Cat# 7076S; anti-rabbit, HRP-linked antibody, Cell Signaling, Cat# 7074S) were applied at concentrations of 1:5.000 (also see Supplementary Table 1 for details). Proteins were then visualized by enhanced chemiluminescence (ECL; Amersham Biosciences).

[3] = system: RIPK1; experiment: Western blot of pRIPK1 (S166) in TSZ-treated HT29 cells; type: cell-based, human; conditions: Nec-1s 10 µM, Fer-1 1 µM, Nec-1f 10 µM
Procedure: as §1, §3

[4] = system: HT1080 cells; experiment: Ferroptosis inducers (FINs)/ferroptocide, 7-AAD/annexin V flow cytometry; type: cell-based, human; conditions: Nec-1s 30 µM, Nec-1f 30 µM; for double-negative events (7-AAD/annexin V): alone (DMSO) or with Fer-1 1 µM
[5] = system: NIH3T3 cells; experiment: as above; type: cell-based, murine; conditions: alone (DMSO) or with Fer-1 1 µM, Nec-1s 30 µM, Nec-1f 30 µM
Procedure: as §1, §2

[6] = system: NIH3T3 cells; experiment: Simultaneous ferroptosis and necroptosis (RSL3 plus TZ), 7-AAD/annexin V flow cytometry; type: cell-based, murine; conditions: NIH3T3, 16 h
Procedure: as §1, §2

[7] = system: HT1080 cells; experiment: CellTiter-Glo luminescent cell viability assay (ATP), dose-response; type: cell-based, human
Procedure: Cells were plated in an opaque-walled 96-well plate and treatment with ferroptosis inducers and/or ferroptosis inhibitors was initiated 24 h later. […] Here, the reaction agent was directly added to the wells, mixed on an orbital shaker for 2 min, and then incubated at room temperature for 10 min. The luminescence was detected using a Promega GloMax® instrument.

[8] = system: Mouse cortical tubule cells (MCT); experiment: FINs/ferroptocide, 7-AAD/annexin V flow cytometry; type: cell-based; conditions: MCT, alone (DMSO) or with Fer-1 1 µM, Nec-1s 30 µM, Nec-1f 30 µM
Procedure: as §1, §2

[9] = system: CD10-135 cells; experiment: FINs/ferroptocide, LDH release assay; type: cell-based, human; parameters: LDH release: unit not given here; conditions: Nec-1f 30 µM
[10] = system: NIH3T3 cells; experiment: Ferroptosis inducers (FINs)/ferroptocide, 7-AAD/annexin V flow cytometry; type: cell-based, murine; conditions: individual replicates
[11] = system: C57Bl/6 N mice; experiment: Bilateral kidney ischemia-reperfusion injury, severe model (38 min ischemia), survival; conditions: single dose 2 mg/kg body weight before reperfusion

Compound: CN1C(=O)NC(Cc2c[nH]c3c(Cl)cccc23)C1=O (stereo not drawn) [Nec-1s, necrostatin-1s]
- 7-AAD/annexin V flow cytometry, source data of bar graph Fig2e ([1]; HT29, TSZ (TNFα 20 ng/ml, birinapant 1 µM, zVAD-fmk 20 µM) 16 h): 77% and 78.7% and 91.4% and 88.7%
- Protection against TSZ-induced necroptosis (7-AAD/annexin V, words) ([1]; HT29, TSZ): maintained double negativity
- Phosphorylation of MLKL (pS358), western blot [2]: comparable between Nec-1s and Nec-1f
- Phosphorylation of RIPK1 at S166, western blot [3]: prevented phosphorylation at S166 in RIPK1
- double-negative events (7-AAD/annexin V) ([4]; HT1080, 1.13 µM RSL3 6 h): 45.5% and 30.5% and 56.9% and 58.4%
- double-negative events (7-AAD/annexin V) ([4]; HT1080, 10 µM FIN56 24 h): 88.1% and 85.1% and 82.1%
- double-negative events (7-AAD/annexin V) ([4]; HT1080, 10 µM ferroptocide 24 h): 42.7% and 26.5%
- Inhibition of cell death induction by FINs/ferroptocide ([4]; HT1080, Fer-1 1 µM): but not by Nec-1s
- double-negative events (7-AAD/annexin V) ([5]; NIH3T3, 5 µM erastin 24 h): 10.2% and 2.01% and 4.47% and 2.99%
- double-negative events (7-AAD/annexin V) ([5]; NIH3T3, 10 µM FIN56 24 h): 88.9% and 92.9% and 90.2%
- double-negative events (7-AAD/annexin V) ([5]; NIH3T3, 10 µM FINO2 24 h): 6.67% and 1.36% and 2.97% and 1.72% and 7.65% and 9.33%
- Rescue from necrosis induced by RSL3 plus TZ [6]: fail to rescue
- ATP luminescence (CellTiterGlo) ([7]; HT1080 + Erastin, inhibitor concentration 0.01 (unit not given)): 6.2776%
- ATP luminescence (CellTiterGlo) ([7]; HT1080 + Erastin, inhibitor concentration 0.1 (unit not given)): 6.426%
- ATP luminescence (CellTiterGlo) ([7]; HT1080 + Erastin, inhibitor concentration 1 (unit not given)): 6.611%
- ATP luminescence (CellTiterGlo) ([7]; HT1080 + Erastin, inhibitor concentration 10 (unit not given)): 6.739%
- ATP luminescence (CellTiterGlo) ([7]; HT1080 + Erastin, inhibitor concentration 30 (unit not given)): 13.0792%
- ATP luminescence (CellTiterGlo) ([7]; HT1080 + Ferroptocide, inhibitor concentration 0.01 (unit not given)): 2.171% and 0.348%
- ATP luminescence (CellTiterGlo) ([7]; HT1080 + Ferroptocide, inhibitor concentration 0.1 (unit not given)): 7.287% and 1.309%
- ATP luminescence (CellTiterGlo) ([7]; HT1080 + RSL3, inhibitor concentration 0.01 (unit not given)): 48.9951% and 58.0398%
- ATP luminescence (CellTiterGlo) ([7]; HT1080 + RSL3, inhibitor concentration 0.1 (unit not given)): 48.7049% and 62.3771%
- ATP luminescence (CellTiterGlo) ([7]; HT1080 + RSL3, inhibitor concentration 1 (unit not given)): 60.6314% and 81.5005%
- ATP luminescence (CellTiterGlo) ([7]; HT1080 + RSL3, inhibitor concentration 10 (unit not given)): 61.8212% and 84.0786%
- double-negative events (7-AAD/annexin V) ([8]; 5 µM erastin 24 h): 60.5% and 85.4% and 84.9% and 77.6%
- double-negative events (7-AAD/annexin V) ([8]; 10 µM FIN56 24 h): 93.3% and 88% and 89.2%
- LDH release ([9]; CD10-135, FIN56 alone (FIN) or with Fer-1, Nec-1s): 86.05 and 52.2984 and 63.7092
- LDH release ([9]; CD10-135, FINO2 alone (FIN) or with Fer-1, Nec-1s): 71.57 and 72.5571 and 70.4933
- LDH release ([9]; CD10-135, RSL3 alone (FIN) or with Fer-1, Nec-1s): 64.62 and 54.5823
- LDH release ([9]; CD10-135, erastin alone (FIN) or with Fer-1, Nec-1s): 93.98 and 95.3511 and 88.9965
- LDH release ([9]; CD10-135, ferroptocide alone (FIN) or with Fer-1, Nec-1s): 100 and 93.4978
- cells in 7-AAD/annexin V flow cytometry (FigS9b) ([10]; Erastin-induced ferroptosis): 17.0% and 14.0% and 10.0%
- cells in 7-AAD/annexin V flow cytometry (FigS9b) ([10]; FIN56-induced ferroptosis): 57.0% and 34.0%
- cells in 7-AAD/annexin V flow cytometry (FigS9b) ([10]; FINO2-induced ferroptosis): 63.0% and 21.0%
- cells in 7-AAD/annexin V flow cytometry (FigS9b) ([10]; Ferroptocide-induced cell death): 80.0% and 5.0%
- cells in 7-AAD/annexin V flow cytometry (FigS9b) ([10]; RSL3-induced ferroptosis): 71.0% and 41.0%
- Survival after severe renal IRI vs vehicle (Kaplan-Meier, words) [11]: not statistically significant
